Source: PMC4503722, “Novel Phenotypic Outcomes Identified for a Public Collection of Approved Drugs from a Publicly Accessible Panel of Assays” (PLoS ONE, 2015)

Experiments:
[1] = test system: endothelial tube formation in co-cultures of ECFCs and ADSCs treated with VEGF; test: cells; type: cell-based, human
[2] = test system: nuclear β-catenin in C2C12 cells; test: cells; type: cell-based; conditions: concentration response; for WntCondMedia_bCatenin C2C12 IC50/EC50: assay number 5
[3] = test system: alkaline phosphatase (ALP) activity in C2C12 cells; type: cell-based; conditions: concentration response; for WntCondMedia_Alk Phos C2C12 IC50/EC50: assay number 6
HeLa cells = test: cells; type: cell-based; conditions: for Hela CellCycMod PI 2N IC50/EC50: assay number 14; for Hela CellCycMod PI S Phase IC50/EC50: assay number 15; for Hela CellCycMod PI 4N IC50/EC50: assay number 16; for Hela CellCycMod PI MI IC50/EC50: assay number 17; for Hela CellCycMod PI Cell Number IC50/EC50: assay number 18
DLD-1 = test: cells; type: cell-based; conditions: for Basal_Viability ATP DLD-1 IC50/EC50: assay number 23
SW480 = test: cells; type: cell-based; conditions: for Basal_Viability ATP SW480 IC50/EC50: assay number 24
HCT116 = test: cells; type: cell-based; conditions: basal; for Basal_Viability ATP HCT116 IC50/EC50: assay number 25
[4] = test system: HCT116 cells treated with a GSK3β inhibitor; test: cells; type: cell-based; conditions: for GSK3b inh pretreated_Viability ATP HCT116 IC50/EC50: assay number 26, GSK3b inhibitor pretreated
Colo320 = test: cells; type: cell-based; conditions: for Basal_Viability ATP Colo 320 IC50/EC50: assay number 27
HT-29 = test: cells; type: cell-based; conditions: for Basal_Viability ATP HT-29 IC50/EC50: assay number 28
RKO = test: cells; type: cell-based; conditions: for Basal_Viability ATP RKO IC50/EC50: assay number 29
SNU-C1 = test: cells; type: cell-based; conditions: for Basal_Viability ATP SNU-C1 IC50/EC50: assay number 30
hp70S6K1 (RPS6KB1) = biological target: T1, hp70S6K1 (RPS6KB1) (Homo sapiens, UniProt P23443); test: Cerep LANCE kinase assay hp70S6K1 (S1 assay 31); type: biochemical; conditions: for hp70S6K1 LANCE IC50/EC50: assay number 31
T1 construct: purchased Cerep (LANCE kinase assay platform, contract assay)

hKDR = biological target: T2, hKDR (Homo sapiens, UniProt P35968); test: Cerep LANCE kinase assay hKDR (S1 assay 32); type: biochemical; conditions: for hKDR LANCE IC50/EC50: assay number 32
T2 construct: purchased Cerep (LANCE kinase assay platform, contract assay)

hJAK2 = biological target: T3, hJAK2 (Homo sapiens, UniProt O60674); test: Cerep LANCE kinase assay hJAK2 (S1 assay 33); type: biochemical; conditions: for hJAK2 LANCE IC50/EC50: assay number 33
T3 construct: purchased Cerep (LANCE kinase assay platform, contract assay)

hGSK3b = biological target: T4, hGSK3b (Homo sapiens, UniProt P49841); test: Cerep LANCE kinase assay hGSK3b (S1 assay 34); type: biochemical; conditions: for hGSK3b LANCE IC50/EC50: assay number 34
T4 construct: purchased Cerep (LANCE kinase assay platform, contract assay)

hFLT3 = biological target: T5, hFLT3 (Homo sapiens, UniProt P36888); test: Cerep LANCE kinase assay hFLT3 (S1 assay 35); type: biochemical; conditions: for hFLT3 LANCE IC50/EC50: assay number 35
T5 construct: purchased Cerep (LANCE kinase assay platform, contract assay)

[5] = test system: ECFC/ADSC co-culture cell nuclei number

T2 sequence (P35968 20-1356): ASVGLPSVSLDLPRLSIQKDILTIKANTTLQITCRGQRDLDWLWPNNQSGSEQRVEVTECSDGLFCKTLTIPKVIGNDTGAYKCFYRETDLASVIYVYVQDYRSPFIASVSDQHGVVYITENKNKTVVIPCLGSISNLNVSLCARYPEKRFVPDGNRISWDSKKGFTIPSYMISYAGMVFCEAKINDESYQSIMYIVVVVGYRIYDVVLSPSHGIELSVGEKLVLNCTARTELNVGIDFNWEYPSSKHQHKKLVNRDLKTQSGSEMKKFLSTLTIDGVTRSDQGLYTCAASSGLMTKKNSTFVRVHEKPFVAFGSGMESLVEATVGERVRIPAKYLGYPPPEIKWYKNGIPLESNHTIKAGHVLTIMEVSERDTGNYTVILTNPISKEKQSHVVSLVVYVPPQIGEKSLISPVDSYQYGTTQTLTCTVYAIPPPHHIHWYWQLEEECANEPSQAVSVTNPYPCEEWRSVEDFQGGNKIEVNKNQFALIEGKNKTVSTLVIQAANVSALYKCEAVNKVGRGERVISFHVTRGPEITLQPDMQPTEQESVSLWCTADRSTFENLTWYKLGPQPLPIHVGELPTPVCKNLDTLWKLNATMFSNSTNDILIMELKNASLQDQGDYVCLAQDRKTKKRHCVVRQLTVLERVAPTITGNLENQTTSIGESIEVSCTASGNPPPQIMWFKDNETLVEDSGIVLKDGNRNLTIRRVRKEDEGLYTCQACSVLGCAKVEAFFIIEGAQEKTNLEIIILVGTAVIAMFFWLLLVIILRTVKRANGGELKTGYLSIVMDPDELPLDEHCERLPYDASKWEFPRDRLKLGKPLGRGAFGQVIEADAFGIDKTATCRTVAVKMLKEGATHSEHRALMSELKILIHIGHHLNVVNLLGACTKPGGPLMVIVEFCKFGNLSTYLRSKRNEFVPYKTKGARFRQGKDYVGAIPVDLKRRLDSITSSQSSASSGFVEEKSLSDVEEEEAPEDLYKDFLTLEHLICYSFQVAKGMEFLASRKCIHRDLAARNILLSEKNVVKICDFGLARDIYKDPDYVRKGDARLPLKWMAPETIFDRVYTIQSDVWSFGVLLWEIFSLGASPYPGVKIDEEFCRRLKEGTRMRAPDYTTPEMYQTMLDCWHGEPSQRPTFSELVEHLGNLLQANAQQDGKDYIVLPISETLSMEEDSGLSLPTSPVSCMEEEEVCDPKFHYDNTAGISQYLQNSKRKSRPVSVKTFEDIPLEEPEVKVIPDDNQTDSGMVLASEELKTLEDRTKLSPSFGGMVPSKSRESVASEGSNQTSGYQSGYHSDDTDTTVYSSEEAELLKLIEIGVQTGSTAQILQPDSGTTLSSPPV
T4 sequence (P49841 whole entry): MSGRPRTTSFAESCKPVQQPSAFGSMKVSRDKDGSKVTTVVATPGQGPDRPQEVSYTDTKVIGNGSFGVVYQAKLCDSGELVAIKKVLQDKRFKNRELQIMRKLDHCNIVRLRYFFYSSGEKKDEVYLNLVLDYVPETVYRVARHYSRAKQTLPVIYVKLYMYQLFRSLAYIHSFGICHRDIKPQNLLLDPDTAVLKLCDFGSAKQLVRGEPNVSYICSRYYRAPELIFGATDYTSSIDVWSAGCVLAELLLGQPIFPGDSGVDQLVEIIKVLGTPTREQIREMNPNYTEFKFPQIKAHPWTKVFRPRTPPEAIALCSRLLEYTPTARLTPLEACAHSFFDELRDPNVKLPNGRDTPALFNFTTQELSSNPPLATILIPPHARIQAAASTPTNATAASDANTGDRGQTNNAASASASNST
T5 sequence (P36888 27-993): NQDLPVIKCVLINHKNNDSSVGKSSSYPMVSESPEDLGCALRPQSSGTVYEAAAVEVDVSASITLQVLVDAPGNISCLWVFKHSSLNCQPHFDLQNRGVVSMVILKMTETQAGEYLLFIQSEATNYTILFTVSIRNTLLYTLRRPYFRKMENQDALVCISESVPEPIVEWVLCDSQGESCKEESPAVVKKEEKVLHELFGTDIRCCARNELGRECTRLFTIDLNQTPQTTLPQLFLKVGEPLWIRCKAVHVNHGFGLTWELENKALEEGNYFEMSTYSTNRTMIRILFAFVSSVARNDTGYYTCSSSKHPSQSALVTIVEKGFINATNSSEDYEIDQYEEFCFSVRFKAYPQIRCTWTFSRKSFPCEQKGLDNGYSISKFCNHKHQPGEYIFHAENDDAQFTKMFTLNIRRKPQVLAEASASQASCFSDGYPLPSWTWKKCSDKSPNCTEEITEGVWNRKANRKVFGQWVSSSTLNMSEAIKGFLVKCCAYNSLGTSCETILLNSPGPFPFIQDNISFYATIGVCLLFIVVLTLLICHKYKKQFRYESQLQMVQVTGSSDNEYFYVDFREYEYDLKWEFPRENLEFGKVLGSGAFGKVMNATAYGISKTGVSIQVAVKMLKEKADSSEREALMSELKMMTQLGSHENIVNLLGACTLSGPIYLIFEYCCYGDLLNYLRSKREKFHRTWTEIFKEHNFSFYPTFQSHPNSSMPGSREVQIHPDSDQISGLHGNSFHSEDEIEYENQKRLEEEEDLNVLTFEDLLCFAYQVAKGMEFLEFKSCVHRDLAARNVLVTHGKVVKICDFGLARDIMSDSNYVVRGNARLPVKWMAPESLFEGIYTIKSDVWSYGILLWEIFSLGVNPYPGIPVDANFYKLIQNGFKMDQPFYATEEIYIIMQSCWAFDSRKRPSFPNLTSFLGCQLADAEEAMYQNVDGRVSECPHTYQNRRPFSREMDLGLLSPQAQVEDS
T1 sequence (P23443 whole entry): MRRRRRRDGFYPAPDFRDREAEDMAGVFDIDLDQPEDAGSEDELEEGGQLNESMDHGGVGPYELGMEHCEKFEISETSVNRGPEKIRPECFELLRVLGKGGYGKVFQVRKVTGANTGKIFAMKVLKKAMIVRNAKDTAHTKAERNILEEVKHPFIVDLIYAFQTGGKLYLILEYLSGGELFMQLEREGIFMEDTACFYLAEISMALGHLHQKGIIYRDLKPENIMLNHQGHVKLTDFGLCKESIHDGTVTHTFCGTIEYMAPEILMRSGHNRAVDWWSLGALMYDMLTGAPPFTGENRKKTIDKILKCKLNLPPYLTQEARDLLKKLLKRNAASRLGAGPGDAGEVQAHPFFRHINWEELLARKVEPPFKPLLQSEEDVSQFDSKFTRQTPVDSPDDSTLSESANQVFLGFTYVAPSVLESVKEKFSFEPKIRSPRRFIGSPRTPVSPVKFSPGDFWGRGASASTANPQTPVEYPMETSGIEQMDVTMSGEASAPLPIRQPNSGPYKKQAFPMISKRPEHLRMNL
T3 sequence (O60674 whole entry): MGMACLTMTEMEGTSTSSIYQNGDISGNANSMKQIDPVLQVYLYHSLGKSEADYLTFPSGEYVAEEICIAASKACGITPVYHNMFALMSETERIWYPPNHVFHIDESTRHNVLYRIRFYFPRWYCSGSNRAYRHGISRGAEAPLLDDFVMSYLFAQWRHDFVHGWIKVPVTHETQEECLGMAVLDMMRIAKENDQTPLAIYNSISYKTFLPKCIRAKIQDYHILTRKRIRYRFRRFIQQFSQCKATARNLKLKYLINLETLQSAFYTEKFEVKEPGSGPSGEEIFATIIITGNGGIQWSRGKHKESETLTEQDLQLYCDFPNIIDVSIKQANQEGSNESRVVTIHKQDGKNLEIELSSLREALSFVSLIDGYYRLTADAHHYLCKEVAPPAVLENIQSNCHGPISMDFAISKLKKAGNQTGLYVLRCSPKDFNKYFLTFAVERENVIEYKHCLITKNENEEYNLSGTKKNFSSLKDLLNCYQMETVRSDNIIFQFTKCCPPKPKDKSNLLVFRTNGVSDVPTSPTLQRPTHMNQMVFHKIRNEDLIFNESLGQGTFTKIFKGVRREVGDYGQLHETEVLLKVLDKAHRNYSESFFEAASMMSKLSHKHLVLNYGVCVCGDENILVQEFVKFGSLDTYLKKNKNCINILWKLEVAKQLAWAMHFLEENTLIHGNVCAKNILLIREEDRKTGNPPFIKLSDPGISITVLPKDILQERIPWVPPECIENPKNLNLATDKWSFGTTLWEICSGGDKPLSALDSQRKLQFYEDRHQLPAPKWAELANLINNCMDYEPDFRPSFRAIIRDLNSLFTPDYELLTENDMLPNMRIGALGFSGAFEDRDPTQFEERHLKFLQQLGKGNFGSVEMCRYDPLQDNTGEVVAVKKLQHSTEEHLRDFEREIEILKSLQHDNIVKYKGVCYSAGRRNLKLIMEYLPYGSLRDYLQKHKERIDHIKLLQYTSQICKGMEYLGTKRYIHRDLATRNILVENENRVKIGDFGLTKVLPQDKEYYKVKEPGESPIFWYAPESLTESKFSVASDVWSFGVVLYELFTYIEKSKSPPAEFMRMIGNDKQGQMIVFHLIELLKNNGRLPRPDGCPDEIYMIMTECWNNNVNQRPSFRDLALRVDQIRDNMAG

In the case of `Cc1ccc2nc(N)[nH]c(=O)c2c1Sc1ccncc1.Cl.Cl` [NCGC00263580-01], the “VEGF_ADSC\ECFC Angio CD31 TubeArea IC50/EC50” value [1] is reported as 7.3662 µM, the “WntCondMedia_bCatenin C2C12 IC50/EC50” value [2] is reported as 0.7099 µM and the “WntCondMedia_Alk Phos C2C12 IC50/EC50” value [3] is reported as 0.2444 µM. The “Hela CellCycMod PI 2N IC50/EC50” value (HeLa cells; 2N) was > 10 µM, the “Hela CellCycMod PI S Phase IC50/EC50” value (HeLa cells) was > 10 µM and the “Hela CellCycMod PI 4N IC50/EC50” value (HeLa cells; 4N) was > 10 µM. For the same compound, the “Hela CellCycMod PI MI IC50/EC50” value (HeLa cells; MI) was > 10 µM, the “Hela CellCycMod PI Cell Number IC50/EC50” value (HeLa cells) was > 10 µM and the “Basal_Viability ATP DLD-1 IC50/EC50” value (DLD-1) was > 20 µM. The “Basal_Viability ATP SW480 IC50/EC50” value (SW480) was 2.241 µM, the “Basal_Viability ATP HCT116 IC50/EC50” value (HCT116) was 3.495 µM and the “GSK3b inh pretreated_Viability ATP HCT116 IC50/EC50” value [4] was 0.8299 µM. For the same compound, the “Basal_Viability ATP Colo 320 IC50/EC50” value (Colo320) was > 20 µM, the “Basal_Viability ATP HT-29 IC50/EC50” value (HT-29) was 4.747 µM and the “Basal_Viability ATP RKO IC50/EC50” value (RKO) was 0.3429 µM. For the same compound, the “Basal_Viability ATP SNU-C1 IC50/EC50” value (SNU-C1) was > 20 µM, the “hp70S6K1 LANCE IC50/EC50” value (hp70S6K1 (RPS6KB1)) was 17.8 µM and the “hKDR LANCE IC50/EC50” value (hKDR) was > 20 µM. For the same compound, the “hJAK2 LANCE IC50/EC50” value (hJAK2) was > 20 µM, the “hGSK3b LANCE IC50/EC50” value (hGSK3b) was > 20 µM and the “hFLT3 LANCE IC50/EC50” value (hFLT3) was > 20 µM. For the same compound, the “VEGF_ADSC\ECFC Angio Hoechst NucArea IC50/EC50” value [5] was > 10 µM.

`CCCSc1ccc2nc(NC(=O)OC)[nH]c2c1` [NCGC00016876-12] was tested, and the “IC50/EC50, VEGF_ADSC\ECFC Angio CD31 TubeArea (assay number 2)” value [1] was 0.3554 µM, the “IC50/EC50, WntCondMedia_bCatenin C2C12 (assay number 5)” value [2] was 1.2764 µM and the “IC50/EC50, WntCondMedia_Alk Phos C2C12 (assay number 6)” value [3] was 12.2685 µM. For the same compound, the “IC50/EC50, Hela CellCycMod PI 2N (assay number 14)” value (HeLa cells; 2N) was 0.0656 µM, the “IC50/EC50, Hela CellCycMod PI 4N (assay number 16)” value (HeLa cells; 4N) was 0.0612 µM and the “IC50/EC50, Hela CellCycMod PI Cell Number (assay number 18)” value (HeLa cells; Cell Number) was 0.0377 µM. The “IC50/EC50, Hela CellCycMod PI MI (assay number 17)” value (HeLa cells; MI) was 0.0615 µM, the “IC50/EC50, Hela CellCycMod PI S Phase (assay number 15)” value (HeLa cells; S Phase) was > 10 µM and the “IC50/EC50, Basal_Viability ATP DLD-1 (assay number 23)” value (DLD-1; basal) was 0.1085 µM. For the same compound, the “IC50/EC50, Basal_Viability ATP SW480 (assay number 24)” value (SW480; basal) was > 20 µM, the “IC50/EC50, Basal_Viability ATP HCT116 (assay number 25)” value (HCT116) was 0.1118 µM and the “IC50/EC50, GSK3b inh pretreated_Viability ATP HCT116 (assay number 26)” value ([4]; GSK3b inh pretreated) was 0.1579 µM. The “IC50/EC50, Basal_Viability ATP Colo 320 (assay number 27)” value (Colo320; basal) was 0.502 µM, the “IC50/EC50, Basal_Viability ATP HT-29 (assay number 28)” value (HT-29; basal) was > 20 µM and the “IC50/EC50, Basal_Viability ATP RKO (assay number 29)” value (RKO; basal) was 0.1653 µM. For the same compound, the “IC50/EC50, Basal_Viability ATP SNU-C1 (assay number 30)” value (SNU-C1; basal) was > 20 µM, the “IC50/EC50, hp70S6K1 LANCE (assay number 31)” value (hp70S6K1 (RPS6KB1)) was > 20 µM and the “IC50/EC50, hKDR LANCE (assay number 32)” value (hKDR) was > 20 µM. The “IC50/EC50, hJAK2 LANCE (assay number 33)” value (hJAK2) was > 20 µM, the “IC50/EC50, hGSK3b LANCE (assay number 34)” value (hGSK3b) was > 20 µM and the “IC50/EC50, hFLT3 LANCE (assay number 35)” value (hFLT3) was > 20 µM. The “IC50/EC50, VEGF_ADSC\ECFC Angio Hoechst NucArea (assay number 3)” value [5] was > 10 µM.

For `O=C1c2c(O)ccc(O)c2C(=O)c2c(NCCNCCO)ccc(NCCNCCO)c21` [NCGC00015693-09], the “VEGF_ADSC\ECFC Angio CD31 TubeArea IC50/EC50” value [1] was 0.0044 µM, the “WntCondMedia_bCatenin C2C12 IC50/EC50” value [2] was 0.0303 µM and the “WntCondMedia_Alk Phos C2C12 IC50/EC50” value [3] was 1.509 µM. For the same compound, the “Hela CellCycMod PI 2N IC50/EC50” value (HeLa cells; 2N) was > 10 µM, the “Hela CellCycMod PI S Phase IC50/EC50” value (HeLa cells) was > 10 µM and the “Hela CellCycMod PI 4N IC50/EC50” value (HeLa cells; 4N) was > 10 µM. The “Hela CellCycMod PI MI IC50/EC50” value (HeLa cells; MI) was > 10 µM, the “Hela CellCycMod PI Cell Number IC50/EC50” value (HeLa cells) was 0.0031 µM and the “Basal_Viability ATP DLD-1 IC50/EC50” value (DLD-1; basal) was 1.6038 µM. For the same compound, the “Basal_Viability ATP SW480 IC50/EC50” value (SW480; basal) was 1.8306 µM, the “Basal_Viability ATP HCT116 IC50/EC50” value (HCT116) was 1.2335 µM and the “GSK3b inh pretreated_Viability ATP HCT116 IC50/EC50” value [4] was 0.001 µM. The “Basal_Viability ATP Colo 320 IC50/EC50” value (Colo320; basal) was 7.4079 µM, the “Basal_Viability ATP HT-29 IC50/EC50” value (HT-29; basal) was 7.591 µM and the “Basal_Viability ATP RKO IC50/EC50” value (RKO; basal) was 1.0291 µM. The “Basal_Viability ATP SNU-C1 IC50/EC50” value (SNU-C1; basal) was 1.718 µM, the “hp70S6K1 LANCE IC50/EC50” value (hp70S6K1 (RPS6KB1)) was > 20 µM and the “hKDR LANCE IC50/EC50” value (hKDR) was > 20 µM. The “hJAK2 LANCE IC50/EC50” value (hJAK2) was > 20 µM, the “hGSK3b LANCE IC50/EC50” value (hGSK3b) was > 20 µM and the “hFLT3 LANCE IC50/EC50” value (hFLT3) was > 20 µM. For the same compound, the “VEGF_ADSC\ECFC Angio Hoechst NucArea IC50/EC50” value [5] was 0.01274 µM.

`O=C(CCl)c1ccc(Cl)cc1Cl` [NCGC00091258-05] was tested, and the “VEGF_ADSC\ECFC Angio CD31 TubeArea IC50/EC50” value [1] was 2.4875 µM, the “WntCondMedia_bCatenin C2C12 IC50/EC50” value [2] was 0.3728 µM and the “WntCondMedia_Alk Phos C2C12 IC50/EC50” value [3] was > 20 µM. The “Hela CellCycMod PI 2N IC50/EC50” value (HeLa cells; 2N) was 0.514 µM, the “Hela CellCycMod PI S Phase IC50/EC50” value (HeLa cells) was > 10 µM and the “Hela CellCycMod PI 4N IC50/EC50” value (HeLa cells; 4N) was > 10 µM. For the same compound, the “Hela CellCycMod PI MI IC50/EC50” value (HeLa cells; MI) was 0.541 µM, the “Hela CellCycMod PI Cell Number IC50/EC50” value (HeLa cells) was 0.35 µM and the “Basal_Viability ATP DLD-1 IC50/EC50” value (DLD-1; basal) was 2.0651 µM. For the same compound, the “Basal_Viability ATP SW480 IC50/EC50” value (SW480; basal) was 1.249 µM, the “Basal_Viability ATP HCT116 IC50/EC50” value (HCT116) was 6.3 µM and the “GSK3b inh pretreated_Viability ATP HCT116 IC50/EC50” value [4] was 1.098 µM. For the same compound, the “Basal_Viability ATP Colo 320 IC50/EC50” value (Colo320; basal) was 0.5301 µM, the “Basal_Viability ATP HT-29 IC50/EC50” value (HT-29; basal) was 8.5217 µM and the “Basal_Viability ATP RKO IC50/EC50” value (RKO; basal) was 4.299 µM. For the same compound, the “Basal_Viability ATP SNU-C1 IC50/EC50” value (SNU-C1; basal) was 2.9752 µM, the “hp70S6K1 LANCE IC50/EC50” value (hp70S6K1 (RPS6KB1)) was > 20 µM and the “hKDR LANCE IC50/EC50” value (hKDR) was > 20 µM. The “hJAK2 LANCE IC50/EC50” value (hJAK2) was > 20 µM, the “hGSK3b LANCE IC50/EC50” value (hGSK3b) was > 20 µM and the “hFLT3 LANCE IC50/EC50” value (hFLT3) was > 20 µM. For the same compound, the “VEGF_ADSC\ECFC Angio Hoechst NucArea IC50/EC50” value [5] was 6.1739 µM.
